Reference: PMC3678512, “Synthesis and physicochemical characterization of novel phenotypic probes targeting the nuclear factor-kappa B signaling pathway” (Beilstein Journal of Organic Chemistry, 2013)
In brackets after ≈: the same amount, converted by molar mass. Read-outs that look alike come from different tables or passages of the source.

How the values were obtained:
NOD1 = molecular target: T1, NOD1 (Homo sapiens, UniProt Q9Y239); experiment: γ-tri-DAP-stimulated luciferase production in HEK 293T cells (NF-κB-linked reporter assay); format: cell-based; conditions: HEK 293T cells with endogenous NOD1, NF-κB-linked reporter; read-out: IC50, inhibition of γ-tri-DAP-stimulated luciferase production
T1 construct: luciferase production in HEK 293T cells, which has endogenous NOD1 levels; endogenous in cells; host or cells: HEK 293T
T1 sequence (Q9Y239 1-953): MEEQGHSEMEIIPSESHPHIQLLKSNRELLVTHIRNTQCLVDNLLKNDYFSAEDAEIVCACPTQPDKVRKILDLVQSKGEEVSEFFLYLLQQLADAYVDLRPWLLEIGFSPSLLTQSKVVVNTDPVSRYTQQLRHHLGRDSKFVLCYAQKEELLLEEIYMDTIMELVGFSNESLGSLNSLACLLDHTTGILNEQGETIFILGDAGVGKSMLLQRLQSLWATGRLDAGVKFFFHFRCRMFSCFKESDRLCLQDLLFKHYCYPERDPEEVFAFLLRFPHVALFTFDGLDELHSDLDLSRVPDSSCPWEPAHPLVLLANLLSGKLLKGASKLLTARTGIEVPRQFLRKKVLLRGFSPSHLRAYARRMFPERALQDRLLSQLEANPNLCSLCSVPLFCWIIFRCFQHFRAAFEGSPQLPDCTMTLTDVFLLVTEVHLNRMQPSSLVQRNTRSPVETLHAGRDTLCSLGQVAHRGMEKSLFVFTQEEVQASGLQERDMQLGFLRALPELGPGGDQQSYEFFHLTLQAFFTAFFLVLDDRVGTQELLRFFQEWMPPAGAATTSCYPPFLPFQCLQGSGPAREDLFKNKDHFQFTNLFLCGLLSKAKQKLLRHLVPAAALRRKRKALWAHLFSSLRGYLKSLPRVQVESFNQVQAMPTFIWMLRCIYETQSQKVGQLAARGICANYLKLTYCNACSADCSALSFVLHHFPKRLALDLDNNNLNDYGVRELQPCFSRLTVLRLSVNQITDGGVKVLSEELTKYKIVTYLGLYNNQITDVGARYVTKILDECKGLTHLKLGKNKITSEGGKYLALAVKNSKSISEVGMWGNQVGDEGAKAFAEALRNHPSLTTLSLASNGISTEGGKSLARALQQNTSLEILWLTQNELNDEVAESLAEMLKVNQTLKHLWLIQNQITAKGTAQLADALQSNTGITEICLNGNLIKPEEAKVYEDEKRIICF

NOD2 = experiment: MDP-stimulated signal transduction in NOD2 reporter cell lines; format: cell-based; conditions: reporter cell lines with low or overexpressed NOD2
[1] = system: non-NOD-stimulated NF-κB pathways; experiment: Non-NOD-stimulated NF-κB pathway reporter assays (TNF-α, doxorubicin, PMA/ionomycin); format: cell-based; conditions: doxorubicin and PMA/ionomycin reporter assays
[2] = system: NOD1 (γ-tri-DAP) dependent IL-8 secretion; experiment: NOD1 (γ-tri-DAP) dependent IL-8 secretion; format: cell-based
[3] = system: NOD2-dependent IL-8 secretion in MCF-7 cells; experiment: NOD2-dependent IL-8 secretion in MCF-7 cells; format: cell-based
[4] = system: TNF-α-dependent IL-8 secretion in MCF-7 cells; experiment: TNF-α-dependent IL-8 secretion in MCF-7 cells; format: cell-based
Aqueous solubility = format: physicochemical; conditions: for solubility: aqueous medium
Method: (§1) The probes were evaluated using known in vitro ADME/T assays to understand their overall pharmacological properties (Table 2). […] The PAMPA (parallel artificial membrane permeability assay) assay is used as an in vitro model of passive, transcellular permeability. An artificial membrane immobilized on a filter is placed between a donor and acceptor compartment. […] It is not yet known whether it represents a species specific CPY450 inhibitor.

[5] = PAMPA (parallel artificial membrane permeability assay); format: in vitro ADME
Method: as §1

[6] = Hepatic microsome stability, human; format: in vitro ADME; conditions: human, compound at 1 μM, 60 min
Method: as §1

[7] = Hepatic microsome stability, mouse; format: in vitro ADME; conditions: compound at 1 μM, 60 min
Method: as §1

[8] = Hepatic toxicity in immortalized human hepatocytes; format: cell-based; conditions: Fa2N-4 immortalized human hepatocytes, read-out: Hepatic toxicity LC50
Method: as §1

C/C=C/Cn1c(SCCCc2ccccc2)nc2c1c(=O)[nH]c(=O)n2C [Probe 17]
IC50 (NOD1): 1.54 µM | Selectivity for NOD1-dependent over MDP-stimulated (NOD2-dependent) signal transduction (NOD2): > 8 fold | Selectivity over non-NOD-stimulated NF-κB pathways [1]: selective | Inhibition of NOD1 (γ-tri-DAP) dependent IL-8 secretion [2]: selectively inhibited IL-8 secretion | Inhibition of NOD2-dependent IL-8 secretion [3]: neither inhibited | Inhibition of TNF-α-dependent IL-8 secretion [4]: neither inhibited | Solubility (in words) (Aqueous solubility; across pH 5 to 7.4): lowest solubility | solubility (Aqueous solubility; aqueous buffer, pH 5.0, read-out: Aqueous solubility pH 5.0): 1.5 µM (≈ 0.556 µg/mL) | solubility (Aqueous solubility; pH 6.2, aqueous buffer, read-out: Aqueous solubility pH 6.2): 1.8 µM (≈ 0.667 µg/mL) | solubility (Aqueous solubility; pH 7.4, aqueous buffer, read-out: Aqueous solubility pH 7.4): 1.7 µM (≈ 0.63 µg/mL) | PAMPA Pe, donor pH 5.0 ([5]; donor pH 5.0, acceptor pH 7.4, compound at 50 μM): 1269 10^−6 cm/s | PAMPA Pe, donor pH 6.2 ([5]; donor pH 6.2, acceptor pH 7.4, compound at 50 μM): 1516 10^−6 cm/s | PAMPA Pe, donor pH 7.4 ([5]; donor pH 7.4, acceptor pH 7.4, compound at 50 μM): 1344 10^−6 cm/s | Hepatic microsome stability, human (% remaining) [6]: 8.8 % remaining | Hepatic microsome stability, mouse (% remaining) [7]: 0.86 % remaining | CC50 [8]: > 50 µM
